The values that follow are results of earlier work, collected in patent US20230416754A1, “SINA MOLECULES, METHODS OF PRODUCTION AND USES THEREOF” (PHYZAT BIOPHARMACEUTICALS, LDA, priority 2020, published 2023).

Read-outs that look alike come from different tables or passages of the source.

The test system of the data set is mice.

Regarding `CC(C)(C)NC[C@H](O)COc1nsnc1N1CCOCC1` [Timolol, timolol], the IOP entry is recorded as “did not significantly affect IOP” (reserpine-treated animals) and “significantly reduced IOP” (saline control treated mice).
